Test results published in paper PMC9953295, “Commonly Used Therapeutics Associated with Changes in Arousal Inhibit GABAAR Activation” (Biomolecules, 2023).
Counter-ions that a name gives are not always drawn.

Experiments:
[1] = one reference per drug; cited from earlier work
[2] = target: T1, Human GABAA receptor (α1β2γ2s) expressed in HEK293 cells (Homo sapiens, UniProt P14867+P18507+P47870); assay: Conventional whole-cell patch clamp: GABAA receptor activation and CSF-mediated potentiation; assay type: cell-based; settings: for Effect on GABAA receptor activation (in words): conventional single electrode patch clamp
T1 construct: expressed in transfected cells; host or cells: HEK293
Protocol: Human GABAA receptor cDNAs (α1β2γ2s) were subcloned into the pcDNA 3.1 expression vector, and they were subsequently transfected into HEK293 cells using standard methods. Forty-eight hours later, cells were exposed to individual GABAARNAM solutions with simultaneous exposure to GABA. GABAARNAMs were obtained from Sigma-Aldrich, and the solutions were prepared with a saline solution to 1–300 µM concentrations. […] Stable cell lines were generated and handled as previously described.
Patch pipettes were fabricated from thin-walled borosilicate glass (TW150F-4, World Precision Instruments, Inc., Sarasota, FL, USA) using a horizontal puller (P-97, Sutter Instrument Co., Novato, CA, USA). The resistances of the patch pipettes were 2–5 megaohms when filled with an intracellular solution containing 120 mM KCl, 2 mM MgCl2, 10 mM EGTA, and 10 mM HEPES, adjusted to pH 7.2 with NaOH. Cells were perfused continuously with an extracellular solution containing 160 mM NaCl, 10 mM HEPES, 6 mM D-glucose, 3 mM KCl, 1 mM MgCl2, and 1.5 mM CaCl2, adjusted to pH 7.4. Two 10-channel infusion pumps (KD Scientific) and a rapid solution exchanger (Biologic) were used to apply extracellular saline to the cells. […] The solution changer was driven by protocols written in pClamp 9.2 (Molecular Devices).

[3] = target: α1β2γ2L GABAA receptors stably expressed in HEK293 cells (Mus musculus, UniProt P22723+P62812+P63137); assay type: cell-based; settings: for nH: Hill coefficient of modulator concentration-response; for Effect on GABAA receptor activation (in words): microfluidic patch clamp, concentrations up to 300 μM
Protocol: Extracellular saline solutions contained 140 mM NaCl, 5 mM KCl, 2 mM CaCl2, 1 mM MgCl2, 10 mM HEPES, and 10 mM D-glucose. Both salines were adjusted to pH 7.4 (330 mOsm) and were 0.2 µm filter sterilized. The composition was based on solutions designed for long duration HEK293 biophysics studies. HEK293 cells stably expressing mouse α1β2γ2L receptors were dissociated with detachin (Genlantis, San Diego, CA, USA), resuspended in extracellular saline (2.5 × 10^6 cells/mL), and agitated prior to loading into 384-well Fluxion ensemble plates.
Cells were patched using an Ionflux Mercury microfluidic automated patch clamp system (Fluxion Biosciences, Oakland, CA, USA). Each experiment ran on a disposable 384-well plate with microfluidic channels printed into an ionized polydimethylsiloxane base. Each plate was divided into 4 zones, each containing 8 repeats of the same experimental pattern (see Figure 1). Each pattern comprised 8 compound wells containing the ligands/modulator combinations to be used in the experiment. Connected to these by a manifold perfusion chamber was an inlet well containing the cell suspension, an outlet well for discarded perfusate, and 2 trapping wells. Both trapping wells contained intracellular solution and were connected to the manifold via 20 1 µm diameter holes for cell attachment (each pattern can patch up to 40 cells simultaneously). Intracellular electrodes were placed in the 2 trapping wells, and the reference electrode in the waste well. Electrodes were connected to 64 conventional low-noise resistive feedback amplifiers. After cleaning, the plates were loaded with up to 100 µL of experimental solution or cell suspension per well. Each plate was loaded into the Fluxion Ionflux Mercury device, and a bespoke script primed the experimental fluidic channels and manifold, and the traps and sealed cells for voltage clamp measurements, and finally, controlled solution application/concentration jumps prior to saving the data collected. Agonist applications were repeated in triplicate (see Supplemental Figure S1). The current data were recorded at 10 kHz and stored for offline analysis. MATLAB scripts were used to measure the baseline leak current and peak response for each episode of data (typically 2000–4000/experiment). The matrix of peaks was expressed as a percentage of the response to a reference concentration. For the agonist concentration–response experiments, this was the maximum response. For the modulator concentration–response experiments, this was the EC10 agonist response.

[4] = design: method as in PMID 10384859; settings: cited from earlier work

Sequence of α1β2γ2L GABAA receptors stably expressed in HEK293 cells (P63137 26-512): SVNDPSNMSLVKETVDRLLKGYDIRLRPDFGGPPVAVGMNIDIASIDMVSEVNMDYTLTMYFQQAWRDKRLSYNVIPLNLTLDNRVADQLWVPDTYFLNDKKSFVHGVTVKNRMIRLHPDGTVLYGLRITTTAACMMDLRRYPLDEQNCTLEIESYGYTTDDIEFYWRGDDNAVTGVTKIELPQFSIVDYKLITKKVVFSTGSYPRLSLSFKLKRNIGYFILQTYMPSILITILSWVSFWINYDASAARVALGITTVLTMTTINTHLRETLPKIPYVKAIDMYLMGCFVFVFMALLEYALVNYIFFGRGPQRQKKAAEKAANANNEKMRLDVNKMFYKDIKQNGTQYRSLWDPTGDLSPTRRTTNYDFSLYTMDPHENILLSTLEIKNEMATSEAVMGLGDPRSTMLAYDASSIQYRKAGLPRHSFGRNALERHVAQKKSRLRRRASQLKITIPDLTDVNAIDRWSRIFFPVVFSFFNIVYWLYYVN
Sequence of α1β2γ2L GABAA receptors stably expressed in HEK293 cells (P22723 39-474): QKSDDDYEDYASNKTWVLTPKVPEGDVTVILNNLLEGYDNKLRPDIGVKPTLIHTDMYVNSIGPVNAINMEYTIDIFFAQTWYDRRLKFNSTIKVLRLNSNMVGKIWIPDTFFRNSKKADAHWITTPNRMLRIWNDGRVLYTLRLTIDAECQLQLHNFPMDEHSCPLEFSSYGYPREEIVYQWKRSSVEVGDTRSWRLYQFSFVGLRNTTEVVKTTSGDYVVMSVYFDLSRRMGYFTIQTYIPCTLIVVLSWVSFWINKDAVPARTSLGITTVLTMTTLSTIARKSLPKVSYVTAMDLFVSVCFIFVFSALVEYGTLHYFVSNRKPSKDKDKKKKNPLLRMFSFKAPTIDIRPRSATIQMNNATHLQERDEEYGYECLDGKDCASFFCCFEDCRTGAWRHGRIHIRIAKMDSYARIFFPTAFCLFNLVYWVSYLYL
Sequence of α1β2γ2L GABAA receptors stably expressed in HEK293 cells (P62812 28-455): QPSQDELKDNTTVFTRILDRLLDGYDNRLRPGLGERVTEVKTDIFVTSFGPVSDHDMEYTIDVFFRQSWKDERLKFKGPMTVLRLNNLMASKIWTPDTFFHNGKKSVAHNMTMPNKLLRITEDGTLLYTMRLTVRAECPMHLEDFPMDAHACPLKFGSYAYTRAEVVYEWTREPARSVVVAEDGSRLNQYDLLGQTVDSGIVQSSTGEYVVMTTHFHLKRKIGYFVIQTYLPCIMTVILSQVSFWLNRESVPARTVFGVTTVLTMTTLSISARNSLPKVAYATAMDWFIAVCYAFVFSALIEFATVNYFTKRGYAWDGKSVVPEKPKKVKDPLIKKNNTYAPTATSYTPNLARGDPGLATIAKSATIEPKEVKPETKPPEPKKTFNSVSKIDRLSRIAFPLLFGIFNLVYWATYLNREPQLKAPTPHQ
T1 sequence (P14867 28-456): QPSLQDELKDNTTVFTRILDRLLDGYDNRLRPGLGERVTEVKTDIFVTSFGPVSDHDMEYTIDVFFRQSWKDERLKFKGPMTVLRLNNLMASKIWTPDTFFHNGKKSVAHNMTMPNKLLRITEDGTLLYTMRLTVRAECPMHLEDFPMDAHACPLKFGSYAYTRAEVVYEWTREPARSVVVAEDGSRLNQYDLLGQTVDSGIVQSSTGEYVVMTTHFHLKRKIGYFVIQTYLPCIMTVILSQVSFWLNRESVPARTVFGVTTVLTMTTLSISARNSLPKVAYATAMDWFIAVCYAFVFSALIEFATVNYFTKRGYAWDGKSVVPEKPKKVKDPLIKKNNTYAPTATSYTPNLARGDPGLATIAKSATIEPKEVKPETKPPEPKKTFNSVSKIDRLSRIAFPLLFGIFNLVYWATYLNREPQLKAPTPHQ
T1 sequence (P47870 25-512 limits assumed): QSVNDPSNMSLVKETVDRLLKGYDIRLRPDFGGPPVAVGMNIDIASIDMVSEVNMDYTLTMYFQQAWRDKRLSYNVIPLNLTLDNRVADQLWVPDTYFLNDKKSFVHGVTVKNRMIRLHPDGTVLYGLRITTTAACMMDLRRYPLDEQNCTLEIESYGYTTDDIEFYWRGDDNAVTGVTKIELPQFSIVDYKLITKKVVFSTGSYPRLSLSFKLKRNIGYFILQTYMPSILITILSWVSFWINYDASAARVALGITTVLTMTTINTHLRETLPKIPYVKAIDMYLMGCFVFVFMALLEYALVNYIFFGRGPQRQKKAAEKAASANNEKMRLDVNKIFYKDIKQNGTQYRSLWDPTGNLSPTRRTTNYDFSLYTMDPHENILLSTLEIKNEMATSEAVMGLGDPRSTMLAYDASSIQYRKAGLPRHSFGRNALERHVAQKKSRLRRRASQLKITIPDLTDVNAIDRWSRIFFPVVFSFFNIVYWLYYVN
T1 sequence (P18507 40-467 isoform P18507-1 limits assumed): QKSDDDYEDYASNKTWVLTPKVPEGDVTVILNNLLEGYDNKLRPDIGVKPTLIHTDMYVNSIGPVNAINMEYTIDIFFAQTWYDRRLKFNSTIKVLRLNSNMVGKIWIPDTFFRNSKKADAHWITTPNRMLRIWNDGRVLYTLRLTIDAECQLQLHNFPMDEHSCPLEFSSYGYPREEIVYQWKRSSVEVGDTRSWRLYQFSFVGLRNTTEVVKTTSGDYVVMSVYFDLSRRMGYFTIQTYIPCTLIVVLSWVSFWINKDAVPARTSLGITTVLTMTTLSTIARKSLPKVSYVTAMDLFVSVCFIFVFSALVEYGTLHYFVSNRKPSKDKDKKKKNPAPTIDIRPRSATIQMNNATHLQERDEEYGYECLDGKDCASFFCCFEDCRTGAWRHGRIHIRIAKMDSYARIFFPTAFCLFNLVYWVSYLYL

Row | SMILES | [CNS] concentration of drug in the CNS [1] | nH [3] | Effect on GABAA receptor activation (in words) [3] | further results
1 | CCN(CC)CCCC(C)Nc1ccnc2cc(Cl)ccc12 (stereo not shown) [Chloroquine] | 1.60 [36] μM | – | – | –
2 | CC[C@H]1OC(=O)[C@H](C)[C@@H](O[C@H]2C[C@@](C)(OC)[C@@H](O)[C@H](C)O2)[C@H](C)[C@@H](O[C@@H]2O[C@H](C)C[C@H](N(C)C)[C@H]2O)[C@](C)(OC)C[C@@H](C)C(=O)[C@H](C)[C@@H](O)[C@]1(C)O [Clarithromycin, clarithromycin] | 10 [37] μM | 1 | reversibly inhibited GABAA receptor activation in a concentration-dependent manner | Reversal of CSF-induced potentiation of GABA receptor function ([2]; 300 μM clarithromycin, currents activated by 10 μM GABA (EC10), CSF from hypersomnolent patients, n = 6 cells): 71 ± 13%; Intrinsic efficacy at GABAA receptor (in words) ([2]; clarithromycin applied without GABA): no intrinsic efficacy; Effect on GABAA receptor activation (in words) [2]: reversibly inhibits receptor activation; Effect of clarithromycin concentration on GABA EC50 (in words) ([3]; GABA concentration–function relationships in 0–300 μM clarithromycin): GABA EC50 continued to increase
3 | O=C(O[C@@H]1Cc2c(O)cc(O)cc2O[C@@H]1c1cc(O)c(O)c(O)c1)c1cc(O)c(O)c(O)c1 [EGCG, (-)-Epigallocatechin Gallate] | 0.18 [35] μM | 1.1 | modest inhibition of GABA activation | –
4 | CC[C@H]1OC(=O)[C@H](C)[C@@H](O[C@H]2C[C@@](C)(OC)[C@@H](O)[C@H](C)O2)[C@H](C)[C@@H](O[C@@H]2O[C@H](C)C[C@H](N(C)C)[C@H]2O)[C@](C)(O)C[C@@H](C)C(=O)[C@H](C)[C@@H](O)[C@]1(C)O [Erythromycin] | 0.68 [38] μM | – | – | –
5 | NCCCC(=O)O [GABA] | – | – | – | Response to GABA as % of the maximal response ([3]; 100 µM GABA): > 90%
6 | CCN(CCO)CCCC(C)Nc1ccnc2cc(Cl)ccc12 (stereo not shown) [Hydroxychloroquine, Hydroxychloroquine sulfate] | 50 [39] μM | 1.4 | modest and incomplete block of receptor activation | –
7 | Cc1ncc([N+](=O)[O-])n1CCO [Metronidazole] | – | 0.8 | modest inhibition of GABA activation | Bioavailability ([4]; administered orally): > 90%; CNS concentration as % of plasma concentrations [4]: 60–100%
8 | CN(C)c1ccc(O)c2c1C[C@H]1C[C@H]3[C@H](N(C)C)C(O)=C(C(N)=O)C(=O)[C@@]3(O)C(O)=C1C2=O [Minocycline] | 1.1 [41] μM | – | irreversible blocker | –
9 | CC1COc2c(N3CCN(C)CC3)c(F)cc3c(=O)c(C(=O)O)cn1c23 (stereo not shown) [Ofloxacin] | 5.6 [42] μM | – | modest and incomplete block of receptor activation | Effect on GABAA receptor activation (in words) [2]: modest and incomplete block of receptor activation
10 | C1CCc2nnnn2CC1 [pentylenetetrazole, Pentylenetetrazol] | 330 [43] μM | 1.3 | blocked GABAAR activation in a concentration-dependent manner | –
